Target: T1, mutant G12C K-RAS (Homo sapiens, UniProt P01116, G12C)
T1 construct: made in house; host or cells: E. coli BL21
Assay: covalent adduct formation (CAF) with mutant G12C K-RAS
Format: binding
Design: CAF: unit not given here
Conditions: Table 1, Pyrimidone Core-Morpholine Unsubstituted; after 60 minutes at 10 micromolar
Description: Embodiments disclosed herein are further illustrated by the following examples in Tables 1-4 and the Examples hereinbelow. The Tables indicate the compound number, structure, the observed mass spectral molecular weight peak, and covalent adduct formation (CAF) with a mutant G12C K-RAS after 60 minutes at a concentration of 10 micromolar.

Row | % CAF (60 min) [%] | Structure (SMILES)
1 | 3 | C=CC(=O)N1C[C@H](C)N(c2nc(=O)n3c4c(c(-c5cccc6ccccc56)ccc24)OCC3)C[C@H]1C [Example 13, 7-((2S,5R)-4-acryloyl-2,5-dimethylpiperazin-1-yl)-10-(naphthalen-1-yl)-2H-[1,4]oxazino[2,3,4-ij]quinazolin-5(3H)-one]
2 | 0 | C=CC(=O)N1C[C@H](C)N(c2nc(=O)n3c4c(c(-c5cc(F)cc(Cl)c5)ccc24)OCC3)C[C@H]1C [Example 16, 7-((2S,5R)-4-acryloyl-2,5-dimethylpiperazin-1-yl)-10-(3-chloro-5-fluorophenyl)-2H-[1,4]oxazino[2,3,4-ij]quinazolin-5(3H)-one]
3 | 0 | C=CC(=O)N1CCN(c2nc(=O)n3c4c(c(-c5c(C)ccc6[nH]ncc56)c(Cl)cc24)OCC3)CC1 [Example 8, (S)-7-(4-acryloylpiperazin-1-yl)-9-chloro-10-(5-methyl-1H-indazol-4-yl)-2H-[1,4]oxazino[2,3,4-ij]quinazolin-5(3H)-one]
4 | 17.6 | C=CC(=O)N1CCN(c2nc(=O)n3c4c(c(N(C)c5ccccc5C)c(Cl)cc24)OCC3)CC1 [Example 6]

Same assay, conditions: Table 2, Pyrimidone Core-Morpholine Substituted; after 60 minutes at 10 micromolar

Row | % CAF (60 min) [%] | Structure (SMILES)
5 | 77.4 | C=CC(=O)N1C[C@H](C)N(c2nc(=O)n3c4c(c(-c5ccc(F)cc5)c(Cl)cc24)OCC3CN(C)C)C[C@H]1C (stereo partly drawn) [Example 34, 7-((2S,5R)-4-acryloyl-2,5-dimethylpiperazin-1-yl)-9-chloro-3-((dimethylamino)methyl)-10-(4-fluorophenyl)-2H-[1,4]oxazino[2,3,4-ij]quinazolin-5(3H)-one]
6 | 87.6 | C=CC(=O)N1CCN(c2nc(=O)n3c4c(c(-c5c(O)cccc5F)c(Cl)cc24)OC[C@H]3CO)[C@@H](C)C1 [Example 22, (3R,10S)-7-((S)-4-acryloyl-2-methylpiperazin-1-yl)-9-chloro-10-(2-fluoro-6-hydroxyphenyl)-3-(hydroxymethyl)-2H-[1,4]oxazino[2,3,4-ij]quinazolin-5(3H)-one]

Same assay, conditions: Table 3, Pyridone Core-Morpholine Unsubstituted; after 60 minutes at 10 micromolar

Row | CAF | Structure (SMILES)
7 | 22.3 | C=CC(=O)N1C[C@H](C)N(c2c(C#N)c(=O)n3c4c(c(-c5c(O)cccc5F)c(Cl)cc24)OCC3)C[C@H]1C [Example 41, 7-((2S,5R)-4-acryloyl-2,5-dimethylpiperazin-1-yl)-9-chloro-10-(2-fluoro-6-hydroxyphenyl)-5-oxo-3,5-dihydro-2H-[1,4]oxazino[2,3,4-ij]quinoline-6-carbonitrile]

Same assay, conditions: Table 5; 10 uM, 1 h

Row | % CAF @ 10 uM, 1 h [%] | Structure (SMILES)
8 | 94 | C=CC(=O)N1CCN(c2nc(=O)n3c4c(c(-c5ccc(F)cc5F)c(C(F)(F)F)cc24)SCC3)C2CS(=O)(=O)CC21 (centres unmarked) [Example 100, 7-(4-acryloyl-6,6-dioxidohexahydrothieno[3,4-b]pyrazin-1(2H)-yl)-10-(2,4-difluorophenyl)-9-(trifluoromethyl)-2,3-dihydro-5H-[1,4]thiazino[2,3,4-ij]quinazolin-5-one]
9 | 94 | C=CC(=O)N1CCN(c2nc(=O)n3c4c(c(-c5ccc(F)cc5F)c(Cl)cc24)SC[C@H]3CN2CCN(CC(F)F)CC2)[C@@H](C)C1 [Example 70, (3R)-7-((S)-4-acryloyl-2-methylpiperazin-1-yl)-9-chloro-3-((4-(2,2-difluoroethyl)piperazin-1-yl)methyl)-10-(2,4-difluorophenyl)-2,3-dihydro-5H-[1,4]thiazino[2,3,4-ij]quinazolin-5-one]

Same assay, conditions: Table 6; 10 μM, 1 h

Row | % CAF @ 10 μM,1 h [%] | Structure (SMILES)
10 | 41.6 | C=CC(=O)N1C[C@H](C)N(c2nc(=O)n3c4c(c(-c5ccc(F)cc5F)c(Cl)cc24)O[C@@H](CCCN2CCN(C)CC2)C3)C[C@H]1C [Example 263, (2S)-7-((2S,5R)-4-acryloyl-2,5-dimethylpiperazin-1-yl)-9-chloro-10-(2,4-difluorophenyl)-2-(3-(4-methylpiperazin-1-yl)propyl)-2,3-dihydro-5H-[1,4]oxazino[2,3,4-ij]quinazolin-5-one]
11 | 80.6 | C=CC(=O)N1C[C@H](C)N(c2nc(=O)n3c4c(c(-c5c(O)cccc5F)c(Cl)cc24)OC[C@@H]3Cn2cccn2)C[C@H]1C (atropisomer, axis not shown) [Example 243, (3S,10S)-3-((1H-pyrazol-1-yl)methyl)-7-((2S,5R)-4-acryloyl-2,5-dimethylpiperazin-1-yl)-9-chloro-10-(2-fluoro-6-hydroxyphenyl)-2H-[1,4]oxazino[2,3,4-ij]quinazolin-5(3H)-one]
12 | 2.3 | C=CC(=O)N1C[C@H](C)N(c2nc(=O)n3c4c(c(-c5c(O)cccc5F)c(Cl)cc24)OC[C@@H]3Cn2ccnc2)C[C@H]1C (atropisomer, axis not shown) [Example 248, (3S)-3-((1H-imidazol-1-yl)methyl)-7-((2S,5R)-4-acryloyl-2,5-dimethylpiperazin-1-yl)-9-chloro-10-(2-fluoro-6-hydroxyphenyl)-2H-[1,4]oxazino[2,3,4-ij]quinazolin-5(3H)-one]
13 | 89.8 | C=CC(=O)N1C[C@H](C)N(c2nc(=O)n3c4c(c(-c5ccc(F)cc5F)c(Cl)cc24)OC[C@H]3CCCN2C[C@H]3C[C@@H]2CO3)C[C@H]1C [Example 315, (3R)-3-(3-((1R,4R)-2-oxa-5-azabicyclo[2.2.1]heptan-5-yl)propyl)-7-((2S,5R)-4-acryloyl-2,5-dimethylpiperazin-1-yl)-9-chloro-10-(2,4-difluorophenyl)-2,3-dihydro-5H-[1,4]oxazino[2,3,4-ij]quinazolin-5-one]
14 | 87.6 | C=CC(=O)N1C[C@H](C)N(c2nc(=O)n3c4c(c(-c5ccc(F)cc5F)c(Cl)cc24)OC[C@H]3CCCN2CCS(=O)(=O)CC2)C[C@H]1C [Example 253, (3R)-7-((2S,5R)-4-acryloyl-2,5-dimethylpiperazin-1-yl)-9-chloro-10-(2,4-difluorophenyl)-3-(3-(1,1-dioxidothiomorpholino)propyl)-2,3-dihydro-5H-[1,4]oxazino[2,3,4-ij]quinazolin-5-one]
15 | 57.5 | C=CC(=O)N1C[C@H](C)N(c2nc(=O)n3c4c(c(-c5ccc(F)cc5F)c(Cl)cc24)OC[C@H]3CN2CCN(C)CC2=O)C[C@H]1C [Example 280, (3R)-7-((2S,5R)-4-acryloyl-2,5-dimethylpiperazin-1-yl)-9-chloro-10-(2,4-difluorophenyl)-3-((4-methyl-2-oxopiperazin-1-yl)methyl)-2H-[1,4]oxazino[2,3,4-ij]quinazolin-5(3H)-one]
16 | 54.6 | C=CC(=O)N1C[C@H](C)N(c2nc(=O)n3c4c(c(-c5ccc(F)cc5F)c(Cl)cc24)OC[C@H]3CO[C@H]2CCN(C)C2)C[C@H]1C [Example 335, (3R)-7-((2S,5R)-4-acryloyl-2,5-dimethylpiperazin-1-yl)-9-chloro-10-(2,4-difluorophenyl)-3-((((S)-1-methylpyrrolidin-3-yl)oxy)methyl)-2H-[1,4]oxazino[2,3,4-ij]quinazolin-5(3H)-one]
17 | 87 | C=CC(=O)N1C[C@H](C)N(c2nc(=O)n3c4c(c(-c5ccc(F)cc5F)c(Cl)cc24)OC[C@H]3CC2CCN(CC(F)F)CC2)C[C@H]1C [Example 328, (3R)-7-((2S,5R)-4-acryloyl-2,5-dimethylpiperazin-1-yl)-9-chloro-3-((1-(2,2-difluoroethyl)piperidin-4-yl)methyl)-10-(2,4-difluorophenyl)-2H-[1,4]oxazino[2,3,4-ij]quinazolin-5(3H)-one]
18 | 15.4 | C=CC(=O)N1CCN(c2nc(=O)n3c4c(c(-c5ccc(F)cc5F)c(Cl)cc24)OCC3)[C@@H](CO)C1 [Example 303, 7-((R)-4-acryloyl-2-(hydroxymethyl)piperazin-1-yl)-9-chloro-10-(2,4-difluorophenyl)-2,3-dihydro-5H-[1,4]oxazino[2,3,4-ij]quinazolin-5-one]
19 | 73.8 | C=CC(=O)N1C[C@H](C)N(c2nc(=O)n3c4c(c(-c5cc(Cl)ccc5F)c(Cl)cc24)OC[C@H]3CCCN2CCOCC2)C[C@H]1C [Example 216, (3R)-7-((2S,5R)-4-acryloyl-2,5-dimethylpiperazin-1-yl)-9-chloro-10-(5-chloro-2-fluorophenyl)-3-(3-morpholinopropyl)-2,3-dihydro-5H-[1,4]oxazino[2,3,4-ij]quinazolin-5-one]
20 | 1.4 | C=CC(=O)N1C[C@H](C)N(c2nc(=O)n3c4c(c(-c5c(O)cccc5F)c(Cl)cc24)OC[C@H]3CN2CCC(F)(F)C2)C[C@H]1C (atropisomer, axis not shown) [Example 222, (3R,10S)-7-((2S,5R)-4-acryloyl-2,5-dimethylpiperazin-1-yl)-9-chloro-3-((3,3-difluoropyrrolidin-1-yl)methyl)-10-(2-fluoro-6-hydroxyphenyl)-2,3-dihydro-5H-[1,4]oxazino[2,3,4-ij]quinazolin-5-one]
21 | 0 | C=CC(=O)N1C[C@H](C)N(c2nc(=O)n3c4c(c(-c5c(O)cccc5F)c(Cl)cc24)OC[C@@H]3CN2CCOCC2)C[C@H]1C (atropisomer, axis not shown) [Example 208, (3R,10R)-7-((2S,5R)-4-acryloyl-2,5-dimethylpiperazin-1-yl)-9-chloro-10-(2-fluoro-6-hydroxyphenyl)-3 - (morpholinomethyl)-2,3-dihydro-5H-[1,4]oxazino[2,3,4-ij]quinazolin-5-one]

Second part, the compound before the results:

Row | Structure (SMILES) | % CAF @ 10 μM,1 h [%]
22 | C=CC(=O)N1C[C@H](C)N(c2nc(=O)n3c4c(c(-c5ccc(F)cc5F)c(Cl)cc24)OC[C@@H]3CCCN2[C@@H]3CC[C@H]2COC3)C[C@H]1C [Example 252, (3S)-3-(3-((1R,5S)-3-oxa-8-azabicyclo[3.2.1]octan-8-yl)propyl)-7-((2S,5R)-4-acryloyl-2,5-dimethylpiperazin-1-yl)-9-chloro-10-(2,4-difluorophenyl)-2H-[1,4]oxazino[2,3,4-ij]quinazolin-5(3H)-one] | 60.5
23 | C=CC(=O)N1C[C@H](C)N(c2nc(=O)n3c4c(c(-c5ccccc5C(F)(F)F)c(Cl)cc24)OCC3)C[C@H]1C [Example 197, 7-((2S,5R)-4-acryloyl-2,5-dimethylpiperazin-1-yl)-9-chloro-10-(2-(trifluoromethyl)phenyl)-2,3-dihydro-5H-[1,4]oxazino[2,3,4-ij]quinazolin-5-one] | 0

— patent US12162893B2 (Erasca, Inc., priority 2020, dated 2024)
